Values after ≈ are worked out from the molar mass of the structure shown.
How the values were obtained:
[1] = tested on: Rattus norvegicus; experiment: Anti-inflammatory activity in Rattus norvegicus Wistar albino (rat) assessed as carrageenan-induced paw volume at 100 mg/kg, po administered 1 hr prior to carrageenan-challenge measured at 1 hr (reference value: 1.2075 +/- 0.0405 mm3); format: functional
[2] = tested on: Staphylococcus aureus; experiment: Antimicrobial activity against Staphylococcus aureus ATCC 25923 after 24 hr by broth micro dilution assay; format: functional; settings: ATCC 25923, 24 h
[3] = tested on: HeLa; experiment: Cytotoxicity against Homo sapiens (human) HeLa cells after 24 hr by MTT assay; format: functional, cell-based
[4] = tested on: Escherichia coli; experiment: Antimicrobial activity against Escherichia coli ATCC 25922 after 24 hr by broth micro dilution assay; format: functional; settings: ATCC 25922, 24 h
[5] = tested on: Aspergillus flavus; experiment: Antimicrobial activity against Aspergillus flavus ATCC 15517 after 48 hr by broth micro dilution assay; format: functional; settings: ATCC 15517, 48 h
[6] = tested on: Candida albicans; experiment: Antimicrobial activity against Candida albicans ATCC 24433 after 48 hr by broth micro dilution assay; format: functional; settings: ATCC 24433, 48 h
[7] = tested on: Rattus norvegicus; experiment: Anti-inflammatory activity in Rattus norvegicus Wistar albino (rat) assessed as carrageenan-induced paw volume at 100 mg/kg, po administered 1 hr prior to carrageenan-challenge measured at 5 hr (reference value: 1.24 +/- 0.0754 mm3); format: functional
[8] = Cytotoxicity against Homo sapiens (human) Chang cells after 24 hr by MTT assay; format: functional, cell-based
[9] = tested on: Rattus norvegicus; experiment: Anti-inflammatory activity in Rattus norvegicus Wistar albino (rat) assessed as carrageenan-induced paw volume at 100 mg/kg, po administered 1 hr prior to carrageenan-challenge measured at 3 hr (reference value: 1.225 +/- 0.0484 mm3); format: functional
[10] = tested on: HEp-2; experiment: Cytotoxicity against Homo sapiens (human) Hep2 cells after 24 hr by MTT assay; format: functional, cell-based; settings: HEp-2, 24 h
[11] = tested on: Rattus norvegicus; experiment: Anti-inflammatory activity in Rattus norvegicus Wistar albino (rat) assessed as carrageenan-induced paw volume at 100 mg/kg, po administered 1 hr prior to carrageenan-challenge measured at 4 hr (reference value: 1.2825 +/- 0.0862 mm3); format: functional
[12] = tested on: Pseudomonas aeruginosa; experiment: Antimicrobial activity against Pseudomonas aeruginosa ATCC 27853 after 24 hr by broth micro dilution assay; format: functional; settings: ATCC 27853, 24 h
[13] = tested on: Rattus norvegicus; experiment: Anti-inflammatory activity in Rattus norvegicus Wistar albino (rat) assessed as carrageenan-induced paw volume at 100 mg/kg, po administered 1 hr prior to carrageenan-challenge measured at 2 hr (reference value: 1.4175 +/- 0.1931 mm3); format: functional
[14] = tested on: Rattus norvegicus; experiment: Anti-inflammatory activity in Rattus norvegicus Wistar albino (rat) assessed as inhibition of carrageenan-induced paw edema at 100 mg/kg, po administered 1 hr prior to carrageenan-challenge measured at 1 hr relative to control; format: functional

SMILES | Activity [1] | MIC [2] | IC50 [3] | MIC [4] | MIC [5] | MIC [6] | Activity [7] | IC50 [8] | Activity [9] | IC50 [10] | Activity [11] | MIC [12] | Activity [13] | inhibition in vivo at 100 mg/kg [14]
COc1ccc(-n2c(-c3ccccc3)nc3ccc(Cl)cc3c2=O)cc1 | 1.12 mm3 | 3.12 µg/mL (≈ 8.6 µM) | < 50 µg/mL | 1.56 µg/mL (≈ 4.3 µM) | > 100 µg/mL | 12.5 µg/mL (≈ 34.5 µM) | 1.175 mm3 | > 25 µg/mL | 1.21 mm3 | 12.5 µg/mL (≈ 34.5 µM) | 1.14 mm3 | 3.12 µg/mL (≈ 8.6 µM) | – | –
O=c1c2cc(Cl)ccc2nc(-c2ccccc2)n1-c1ccc(F)c(Cl)c1 | 1.1875 mm3 | > 100 µg/mL | < 25 µg/mL | > 100 µg/mL | > 100 µg/mL | > 100 µg/mL | 1.25 mm3 | < 6.25 µg/mL | 1.17 mm3 | < 6.25 µg/mL | 1.3075 mm3 | 100 µg/mL (≈ 260 µM) | 1.3525 mm3 | –
O=c1c2cc(Cl)ccc2nc(-c2ccccc2)n1Cc1ccc(F)cc1 | 1.1525 mm3 | 0.78 µg/mL (≈ 2.14 µM) | 41.5 µg/mL (≈ 114 µM) | 1.56 µg/mL (≈ 4.28 µM) | 25 µg/mL (≈ 68.5 µM) | 12.5 µg/mL (≈ 34.3 µM) | 1.2875 mm3 | 17.9 µg/mL (≈ 49.2 µM) | 1.135 mm3 | 10.9 µg/mL (≈ 29.8 µM) | 1.24 mm3 | 3.12 µg/mL (≈ 8.55 µM) | 1.285 mm3 | –
O=c1c2cc(Cl)ccc2nc(-c2ccccc2)n1Cc1ccc(Cl)cc1 | – | 0.78 µg/mL (≈ 2.05 µM) | > 200 µg/mL | 1.56 µg/mL (≈ 4.09 µM) | 25 µg/mL (≈ 65.6 µM) | 12.5 µg/mL (≈ 32.8 µM) | 1.1825 mm3 | > 50 µg/mL | 1.195 mm3 | > 50 µg/mL | 1.2325 mm3 | 3.12 µg/mL (≈ 8.18 µM) | 1.265 mm3 | 72.9%
